Measurements as given in patent US11117926B2, “Cholane derivatives for use in the treatment and/or prevention of FXR and TGR5/GPBAR1 mediated diseases” (BAR PHARMACEUTICALS S.R.L., priority 2014, dated 2021).
Where a name gives a salt, the structure may show the parent alone.

Assays:
[1] = biological target: T1, FXR (Homo sapiens, UniProt Q96RI1); assay: FXR mediated transactivation (luciferase reporter) in transfected HepG2 cells; assay type: cell-based; conditions: each compound at 10 microM, transactivation activity of CDCA on FXR = 100%
T1 construct: expressed in transfected cells; host or cells: HepG2
T1 sequence (Q96RI1 1-486): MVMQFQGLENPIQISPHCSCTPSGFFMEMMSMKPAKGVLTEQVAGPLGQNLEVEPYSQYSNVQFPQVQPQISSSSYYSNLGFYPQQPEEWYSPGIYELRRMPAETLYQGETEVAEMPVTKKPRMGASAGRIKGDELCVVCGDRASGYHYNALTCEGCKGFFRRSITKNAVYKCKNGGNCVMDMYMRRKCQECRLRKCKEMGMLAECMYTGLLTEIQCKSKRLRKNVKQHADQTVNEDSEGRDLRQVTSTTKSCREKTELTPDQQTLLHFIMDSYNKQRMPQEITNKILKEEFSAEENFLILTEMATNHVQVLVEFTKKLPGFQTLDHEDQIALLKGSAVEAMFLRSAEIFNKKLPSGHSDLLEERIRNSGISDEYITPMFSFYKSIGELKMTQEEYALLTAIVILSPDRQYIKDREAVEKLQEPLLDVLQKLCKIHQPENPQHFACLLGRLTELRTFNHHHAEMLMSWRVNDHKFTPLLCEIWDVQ
T1 sequence (P19793 1-462 partner): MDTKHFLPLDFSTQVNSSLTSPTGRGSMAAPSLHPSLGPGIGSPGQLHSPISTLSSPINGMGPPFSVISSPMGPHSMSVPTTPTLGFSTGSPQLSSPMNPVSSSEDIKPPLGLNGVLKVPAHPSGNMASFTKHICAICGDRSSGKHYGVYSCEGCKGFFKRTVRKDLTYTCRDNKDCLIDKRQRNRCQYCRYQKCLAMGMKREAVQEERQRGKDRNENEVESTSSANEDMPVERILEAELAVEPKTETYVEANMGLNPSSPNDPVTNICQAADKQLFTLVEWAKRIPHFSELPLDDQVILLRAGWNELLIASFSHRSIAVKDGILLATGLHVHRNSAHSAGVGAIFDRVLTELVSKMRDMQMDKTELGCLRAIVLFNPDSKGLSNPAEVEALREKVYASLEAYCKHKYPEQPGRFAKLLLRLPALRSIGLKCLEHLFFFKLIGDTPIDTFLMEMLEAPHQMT
Method: (§1) Each compound was tested at the concentration of 10 microM and transactivation activity of CDCA on FXR and TLCA on CRE (i.e. TGR5/GPBAR1) was considered equal to 100%.
(§2) Biological Activities. Activity of selected compounds was tested in vitro using a whole cell model transfected with a reporter genes to establish selectivity of compounds shown in table 1 toward FXR and TGR5/GPBAR1 in comparison with chenodeoxycholic acid (CDCA) and TLCA. CDCA is a primary bile acid that functions as an endogenous ligand for FXR, while TLCA is a physiological ligand for TGR5/GPBAR1. In this assay, HepG2 cells (a liver-derived cell line) were cultured at 37° C. in minimum essential medium with Earl's salts containing 10% fetal bovine serum (FBS), 1% L-glutamine, and 1% penicillin/streptomycin. […] The transfection experiments were performed using Fugene HD according to manufactured specifications. Cells were plated in a 24-well plate at 5×10^4 cells/well. For FXR mediated transactivation, HepG2 cells were transfected with 100 ng of pSG5-FXR, 100 ng of pSG5-RXR, 100 ng of pGL4.70 a vector encoding the human Renilla gene and 250 ng of the reporter vector p(hsp27)-TK-LUC containing the FXR response element IR1 cloned from the promoter of heat shock protein 27 (hsp27).
(§3) At 24 h post-transfection, cells were stimulated for 18 h with 10 μM TLCA as a control agent or putative GPBAR1 agonists as the same concentration. After treatments, cells were lysed in 100 μL of lysis buffer (25 mM Tris-phosphate, pH 7.8; 2 mM DTT; 10% glycerol; 1% Triton X-100), and 20 μL of cellular lysate was assayed for luciferase activity using the luciferase assay system. Luminescence was measured using Glomax 20/20 luminometer. Luciferase activities were normalized against Renilla activities. Antagonism against FXR of GPBAR1/TGR5 was measured as percent of activity in transactivation assay suing activity of TLCA as example of agonism.

[2] = biological target: T2, human GPBAR1 (Homo sapiens, UniProt Q8TDU6); assay: GPBAR1 mediated transactivation (CRE luciferase reporter) in transfected HEK-293T cells; assay type: cell-based; conditions: each compound at 10 microM, transactivation activity of TLCA on CRE = 100%
T2 construct: expressed in transfected cells; host or cells: HEK-293T
T2 sequence (Q8TDU6 1-330): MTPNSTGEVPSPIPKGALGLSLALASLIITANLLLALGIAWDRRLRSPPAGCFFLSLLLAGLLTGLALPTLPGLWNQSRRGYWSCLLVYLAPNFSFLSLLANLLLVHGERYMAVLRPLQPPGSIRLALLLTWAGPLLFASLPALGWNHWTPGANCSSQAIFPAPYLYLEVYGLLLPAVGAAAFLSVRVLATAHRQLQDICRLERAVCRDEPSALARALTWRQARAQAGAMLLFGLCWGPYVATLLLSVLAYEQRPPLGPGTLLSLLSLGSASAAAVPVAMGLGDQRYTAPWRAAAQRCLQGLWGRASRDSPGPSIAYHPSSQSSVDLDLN
Method: as §1, §2, §3

| Structure (SMILES) | FXR (% of activity in comparison to 10 μM CDCA) [1] [%] | GPBAR1 (% of activity in comparison to 10 μM TLCA) [2] [%] |
| --- | --- | --- |
| C[C@H](CCOS(=O)(=O)[O-])[C@H]1CC[C@H]2[C@@H]3[C@@H](O)C[C@@H]4C[C@H](O)CC[C@]4(C)[C@H]3CC[C@]12C.[Na+] [BAR106, 3α,7β-dihydroxy-24-nor-5β-cholan-23-yl-23-sodium sulfate] | 0 | 19.0 ± 1.3 |
| C[C@H](CCO)[C@H]1CCC2C3C(CC[C@@]21C)[C@@]1(C)CC[C@@H](O)C[C@H]1C[C@@H]3O (stereo partly drawn) [BAR107, 3α,7β-dihydroxy-24-nor-5β-cholan-23-ol] | 1.8 ± 0.3 | 9.9 ± 1.7 |
| C[C@H](CCCCCO)[C@H]1CCC2C3C(CC[C@@]21C)[C@@]1(C)CC[C@@H](O)C[C@H]1C[C@@H]3O (stereo partly drawn) [BAR304, 25, 26-bishomo-5β-cholan-3α, 7β, 26-triol] | 0 | 55.1 ± 12.5 |
| C[C@H](CCCCC(=O)O)[C@H]1CCC2C3C(CC[C@@]21C)[C@@]1(C)CC[C@@H](O)C[C@H]1C[C@@H]3O (stereo partly drawn) [BAR305, 3α, 7β-dihydroxy-25, 26-bishomo-5β-cholan-26-oic acid] | 0 | 23.9 ± 4.0 |
| C[C@H](CCCOS(=O)(=O)O)[C@H]1CCC2C3C(CC[C@@]21C)[C@@]1(C)CCCC[C@H]1C[C@H]3O (stereo partly drawn) [BAR402, 7α-hydroxy-5β-cholan-24-yl-24-sodium sulfate] | 336.4 ± 20.8 | 28.0 ± 1.8 |
| CC[C@@H]1[C@H](O)[C@@H]2[C@H](CC[C@]3(C)[C@@H]([C@H](C)CCCO)CC[C@@H]23)[C@@]2(C)CC[C@@H](O)C[C@@H]12 [BAR501, 6β-ethyl-3α,7β-dihydroxy-5β-cholan-24-ol] | 9.9 ± 0.1 | 64.5 ± 0.5 |
| CC[C@H]1[C@H](O)[C@@H]2[C@H](CC[C@]3(C)[C@@H]([C@H](C)CCCO)CC[C@@H]23)[C@@]2(C)CC[C@@H](O)C[C@@H]12 [BAR501-6a, 6α-ethyl-3α,7β-dihydroxy-5β-cholan-24-ol] | 15.4 ± 1.2 | 46.6 ± 6.7 |
| CC=C1[C@H](O)[C@@H]2[C@H](CC[C@]3(C)[C@@H]([C@H](C)CCCO)CC[C@@H]23)[C@@]2(C)CC[C@@H](O)C[C@@H]12 [BAR503, 6-ethylidene-3α,7β-dihydroxy-5β-cholan-24-ol] | 68.8 ± 26.6 | 59.8 ± 0.1 |
| CC[C@@H]1[C@@H](O)[C@@H]2[C@H](CC[C@]3(C)[C@@H]([C@H](C)CCCO)CC[C@@H]23)[C@@]2(C)CC[C@@H](O)C[C@@H]12 [BAR504-6b, 6β-ethyl-3α,7α-dihydroxy-5β-cholan-24-ol] | 32.4 ± 14.1 | 75.3 ± 3.4 |
| CC[C@H]1[C@@H](O)C2C3CC[C@H]([C@H](C)CCCO)[C@@]3(C)CCC2[C@@]2(C)CC[C@@H](O)C[C@@H]12 (some centres unmarked) [BAR504] | 488.5 ± 17.5 | 103.0 ± 12.1 |
